From paper PMC10896388, “Hybrid Allosteric Modulators of M1 Muscarinic Receptors Enhance Acetylcholine Efficacy and Decrease Locomotor Activity and Turning Behaviors in Zebrafish” (Research Square, 2024) come the findings set out here.

For series [1], the system named is wild-type (AB) zebrafish (Danio rerio). Kind of series: Maximum tolerated concentration (MTC) determination in zebrafish larvae. As to conditions: for MTC (maximum tolerated concentration): 5 dpf zebrafish larvae, after 24-hr exposure; for signs of toxicity (in words): zebrafish, concentrations up to 30 μM, the highest concentration tested. The format is in vivo. The method, then: Determination of maximum tolerated concentration (adapted from Berghmans)[52] was completed by placing 5 days post fertilization (dpf) wild-type zebrafish larvae in a 24 well plate at 6 fish per well, and one compound concentration per well. […] Death was determined by the absence of heartbeat. Additional endpoints were used to assess toxicity at non-lethal concentrations such as startle capacity (poke stimulus), abnormalities in swimming behavior (loss of dorsoventral balance), and gross morphological deformities (bent body). […] The MTC determination was used to select three doses of each compound (low, medium, high dose) to be used in behavioral assays.

Series [2] shares this test system. Briefly: animal or person. In kind it is in vivo. As to conditions: for effect on locomotor activity and turning behaviors (in words) / concentration with significant effects on zebrafish behavior: AB zebrafish; for effect on locomotor activity and turning behaviors (in words): 30-minute spontaneous swimming period; for Therap. Index: zebrafish, apparently MTC / MEC; for concentration with significant effects on zebrafish behavior: compared with BQCA; for EC50: Danio rerio, AB zebrafish larvae. The procedure:
The movement of larval zebrafish was monitored with the Noldus behavior recording system (Noldus Information Technology, Leesburg VA) and quantified using EthoVision® XT 15 software (Noldus Information Technology, Leesburg VA). Five-dpf zebrafish larvae were exposed to a range of nonlethal concentrations of compounds in a 24-well plate with appropriate controls. The plate was immediately placed in the incubator for a 30-minute exposure period. After 30 minutes, the plate was transferred to the Noldus system and swimming behavior was recorded in 100% light for 30 minutes to measure spontaneous swimming behavior. The light was switched off for 10 minutes (dark period) and then switched on for 10 minutes (light period), which was then repeated for two additional cycles. In total, the larvae were exposed to three cycles of alternating 10-minute dark and light periods (100% darkness-to-100% light). Each drug challenge was conducted on three separate plates with n = 6 larvae/dose/plate.
Absolute turn angle (TA) and angular velocity provided measures of the extent of turning behavior, while the intra-individual variance of turn angle quantified how consistently (low variance) or inconsistently (high variance) fish turned. A lowered intra-individual variance of turning reflected repeatedly performing the same turning behavior, a stereotypy.[53]
All data for exposure and the behavioral end points were analyzed by one-way ANOVA (factor: drug concentration) followed by a Dunnett’s multiple comparisons test for post hoc significance between drug concentration and control group. Statistically significant differences are noted as follows; *, p < 0.05; **, p < 0.01; ***, p < 0.001.

The target in series [3] is T1, human M1 muscarinic receptors (Homo sapiens, UniProt P11229).
T1 sequence (P11229 1-460): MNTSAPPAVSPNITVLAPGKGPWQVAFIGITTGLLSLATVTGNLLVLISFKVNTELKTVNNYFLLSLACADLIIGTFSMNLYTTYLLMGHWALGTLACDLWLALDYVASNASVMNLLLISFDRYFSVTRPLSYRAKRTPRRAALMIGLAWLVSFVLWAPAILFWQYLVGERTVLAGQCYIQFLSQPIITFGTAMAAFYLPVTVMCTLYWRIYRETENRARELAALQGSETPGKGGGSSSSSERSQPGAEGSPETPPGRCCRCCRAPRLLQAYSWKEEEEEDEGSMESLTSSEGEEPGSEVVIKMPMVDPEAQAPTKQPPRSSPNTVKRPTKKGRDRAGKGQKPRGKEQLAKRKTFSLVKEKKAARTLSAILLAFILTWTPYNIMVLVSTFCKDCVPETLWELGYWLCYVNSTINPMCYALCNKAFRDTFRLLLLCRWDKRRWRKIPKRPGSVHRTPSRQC
Kind of series: Full ACh dose-response curves of [3H]AA release fitted to an allosteric operational model.
Method: Tabulated [^3H]AA release data are represented as a fraction of maximal release elicited by ACh or as the fraction of release elicited by the relevant concentration of ACh alone, as indicated. Dose-response curves were normalized to the maximal response of ACh without allosteric ligand. Where indicated, response curves were analyzed using the empirical four-parameter equation: Y=Top+Bottom−Top/1+X/C50^n where X is the concentration of the ligand used, Y is the amount of response, C50 is the concentration of the ligand that produces 50% of the maximal effect, Top and Bottom are the top and bottom plateaus of the curve, and n is related to the Hill slope for the curve. Where indicated, families of response curves were analyzed according to an allosteric operational model:[50],[51]
where EM is the maximal response; A is the concentration of ACh; B is the concentration of the allosteric ligand; τA and τB represent the operational efficacies of A and B, respectively; KA and KB are the equilibrium dissociation constants of A and B; and α and β represent the cooperativities between A and B in terms of binding and activation, respectively. Curve-fitting was carried out with GraphPad Prism, version 5.0 or 6.0 (San Diego CA).

Series [4] deals with T1, human M1 muscarinic receptors. Briefly: [3H]-arachidonic acid release in CHO cells expressing M1 receptors, with and without ACh. The format is cell-based. Set-up: expressed in transfected cells; host or cells: CHO cells (stably transfected CHO-hM1, from Mark Brann's laboratory, NIH). As to conditions: for intrinsic agonist activity (in words): [3H]AA release in the absence of ACh, 10 µM; for modulation of ACh response (in words): modulators at 10 µM (amiodarone 30 µM). The procedure:
CHO cells expressing human M1 muscarinic receptors were cultured at 37°C in a 5% CO2 atmosphere in F12 medium supplemented with 5% fetal bovine serum, 100 units/mL penicillin, and 100µg/mL streptomycin. These cells were obtained from Mark Brann’s laboratory when they were at NIH and have been in use by us and others for many years.[49]
Measurement of [^3H]AA release was performed as described in Stahl and Ellis.[24] Stably transfected CHO-hM1 cells were seeded on 24-well plates (Greiner Bio-One GmbH, Frickenhausen, Germany) at a density of 5.0 × 10^4 cells/well in 0.5 ml of F-12 medium. Cells were incubated until they attached (approximately 3 h), followed by the addition of [^3H]AA to a final concentration of 0.05 µCi of [^3H]AA per well. The cells were then grown for 16 to 20 h before the assay was performed. [^3H]AA release was measured in Eagle’s basal medium with 20 mM HEPES and 2 mg/ml fatty acid-free bovine serum albumin (EM-BSA). Cells were rinsed twice with EM-BSA, followed by the addition of EM-BSA media containing experimental agents and incubated for 1 h at 37°C. The assay was terminated by aspiration of the media, and the amount of [^3H]AA released was determined by liquid scintillation counting (Beckman-Coulter LS6500). […]
Tabulated [^3H]AA release data are represented as a fraction of maximal release elicited by ACh or as the fraction of release elicited by the relevant concentration of ACh alone, as indicated. Dose-response curves were normalized to the maximal response of ACh without allosteric ligand. Where indicated, response curves were analyzed using the empirical four-parameter equation: […] where X is the concentration of the ligand used, Y is the amount of response, C50 is the concentration of the ligand that produces 50% of the maximal effect, Top and Bottom are the top and bottom plateaus of the curve, and n is related to the Hill slope for the curve. Where indicated, families of response curves were analyzed according to an allosteric operational model:[50],[51]

The subject of series [5] is wild-type (AB) zebrafish (Danio rerio). The format is in vivo. As to conditions: zebrafish larvae; 30-minute spontaneous swimming period; mean ± s.e.m., N = 12; test concentration not given.
Setting [6] is: best-fit parameter, allosteric operational model, Em set to 2.0, ACh as agonist.
Where [7] appears, read: read-out: EC50 for decreasing locomotor activity.
The mark [8] stands for this setting: read-out: EC50 for decreasing repetitive behaviors (increasing angular velocity).

Entries after “also recorded” stand apart in the source; their conditions may differ. Where two headings read alike, the source gives them in different places. Where only a bound is given, the exact number is not on record here.

On to `CCN(CC)CCOc1ccc(CN2C(=O)C(=O)c3ccccc32)cc1` [Compound 7, 1-(4-(2-(diethylamino)ethoxy)benzyl)indoline-2,3-dione], for which the “MTC (maximum tolerated concentration)” value in series [1] is listed as 10 µM. Also, the “effect on locomotor activity and turning behaviors (in words)” value in series [2] was “not effective in reducing locomotor activity or elevating angular velocity or variance of turn angle”. In addition, in series [3], the affinity, expressed as Kd, was 631 nM. Also, in series [3] (setting [6]), the “Activation cooperativity, A-B, β” value was 0.99 ± 0.12; the “Binding cooperativity, A-B, α” value was 0.18 ± 0.095; the “Operational Efficacy-B, τB” value is reported as 0.032 ± 0.02. Moreover, in series [4], the “intrinsic agonist activity (in words)” value is on record as “lacked intrinsic activity”. In addition, in series [4] ([3H]AA release, CHO-hM1), the “modulation of ACh response (in words)” value is “primarily decreased potency and slightly enhanced the efficacy of ACh activity; also recorded: decreased ACh potency with little impact on ACh efficacy”.
Consider `CCCCc1oc2ccc(NS(C)(=O)=O)cc2c1C(=O)c1ccc(OCCCN(CCCC)CCCC)cc1` [Dronedarone, reference compound], for which the “MTC (maximum tolerated concentration)” value in series [1] came out at 10 µM. In series [2], the “Therap. Index” value was found to be 1. The “0.1 µM ACh: response with modulator present divided by response to ACh alone” value in series [4] (modulator 10 µM, 0.1 µM ACh, CHO-hM1, mean ± s.e.m.) was 0.25 ± 0.05. For the same compound, the “100 µM ACh: response with modulator present divided by response to ACh alone” value in series [4] (modulator 10 µM, 100 µM ACh, CHO-hM1, mean ± s.e.m.) worked out at 0.75 ± 0.07. Also, in series [4] (modulator 10 µM, no ACh, CHO-hM1, mean ± s.e.m., at least 4 determinations), the “No ACh: agonist effect of the allosteric ligand by itself, fraction of the maximal response that could be elicited by ACh” value came to 0.08 ± 0.01.
As for VU0238408 [reference compound], the “MTC (maximum tolerated concentration)” value in series [1] is on record as 30 µM. The same compound showed an MEC in series [2] (zebrafish larvae, locomotor behaviors, abbreviation not defined in the paper) of 1 µM. The “Therap. Index” value in series [2] was 30. In addition, in series [5], the “Angular Velocity, percentage change relative to controls” value came to 180.1 ± 20.3 %; the “Distance Moved, percentage change relative to controls” value was 34.6 ± 4.0 %; the “Variance Turn Angle, percentage change relative to controls” value was determined as 146.6 ± 12.4 %.
Regarding `CCCCc1oc2ccccc2c1C(=O)c1ccc(OCCN(CC)CC)cc1` [Compound 6c, (2-butylbenzofuran-3-yl)(4-(2-(diethylamino)ethoxy)phenyl)methanone], the “MTC (maximum tolerated concentration)” value in series [1] stood at 3 µM. The “Therap. Index” value in series [2] worked out at 30. The “modulation of ACh response (in words)” value in series [4] ([3H]AA release, CHO-hM1) is on record as “decreased ACh activity”.
With `COc1c(Br)cc(CN2C(=O)C(=O)c3ccccc32)cc1Br` [Compound 8c, 1-(3,5-dibromo-4-methoxybenzyl)indoline-2,3-dione], in series [1], the “MTC (maximum tolerated concentration)” value is on record as > 30 µM and the “signs of toxicity (in words)” value is reported as “neither produced any signs of toxicity”. Moreover, in series [2], the “concentration with significant effects on zebrafish behavior” value is recorded as 1 µM. Further, the concentration for a half-maximal effect (EC50) (in general, the concentration that produces a half-maximal response) in series [2] (setting [7]) is 1000 nM. The EC50 in series [2] (setting [8]) was 1100 nM. Also, in series [3], the Kb is 3000 nM and the Kd (commonly the equilibrium constant for the complex coming apart) is 2950 nM. Also, in series [3] (setting [6]), the “Binding cooperativity, A-B, α” value is reported as 0.98 ± 0.39 and the “Operational Efficacy-B, τB” value was 0.33 ± 0.06. Further, the “modulation of ACh response (in words)” value in series [4] ([3H]AA release, CHO-hM1) is on record as “dramatically enhanced ACh efficacy”.
As for `COc1c(I)cc(CN2C(=O)C(=O)c3ccccc32)cc1I` [Compound 8a, 1-(3,5-diiodo-4-methoxybenzyl)indoline-2,3-dione], in series [1], the “MTC (maximum tolerated concentration)” value is on record as > 30 µM and the “signs of toxicity (in words)” value is listed as “neither produced any signs of toxicity”. In series [2], the “effect on locomotor activity and turning behaviors (in words)” value was “reduced locomotor activity”; the “concentration with significant effects on zebrafish behavior” value was 1 µM; the “Therap. Index” value is reported as > 100. Further, the concentration giving a half-maximal response (EC50) in series [2] (setting [7]) amounted to 5600 nM. The concentration giving a half-maximal response (EC50) in series [2] (setting [8]) worked out at 2600 nM. In series [3], this compound gave a Kb of 550 nM and a Kd of 550 nM. Besides, in series [3] (setting [6]), the “Binding cooperativity, A-B, α” value worked out at 0.69 ± 0.24 and the “Operational Efficacy-B, τB” value came to 0.17 ± 0.03. Also, the “modulation of ACh response (in words)” value in series [4] ([3H]AA release, CHO-hM1) is reported as “significant enhancement of ACh activity; also recorded: dramatically enhanced ACh efficacy”.
With `CCCCc1oc2ccccc2c1C(=O)c1cc(I)c(OCCN(CC)C(=O)c2ccccc2)c(I)c1` [Compound 5b, N-(2-(4-(2-butylbenzofuran-3-carbonyl)-2,6-diiodophenoxy)ethyl)-N-ethylbenzamide], the “MTC (maximum tolerated concentration)” value in series [1] is recorded as 10 µM. For the same compound, in series [5], the “Angular Velocity, percentage change relative to controls” value amounted to 80.4 ± 11.5%; the “Distance Moved, percentage change relative to controls” value is given as 87.7 ± 13.5%; the “Variance Turn Angle, percentage change relative to controls” value amounted to 77.8 ± 9.3%. For the same compound, the “intrinsic agonist activity (in words)” value in series [4] is “lacked intrinsic activity”. In series [4] ([3H]AA release, CHO-hM1, predominantly at higher doses of ACh (Table 2, not available)), the “increase in mAChR activity compared to treatment with ACh alone” value was 80%.
